# Laboratory results: patent US12048687B2, “Methods of recruiting SDF-producing macrophages” (MedRegen, LLC, priority 2013, dated 2024)
# pIC50: −log10 of the molar value. “Also recorded” adds a separate entry of the source.
# Tests used:
# [1] = tested on: cell migration stimulated by CXCL12; details: cited from earlier work
# [2] = tested on: c-Kit+, CD34+, CD133+ cells in wound tissue; assay: immunofluorescence staining of wound sections for stem cell markers; type: in vivo, mouse; details: mice, 5 days post-injury
# Description: (§1) Immunofluorescence staining: For the immunofluorescence staining, frozen sections were fixed with acetone (−20° C.) for 10 min and dried for 1 h at room temperature. PBS containing 1% BSA and 5% normal donkey serum was used to block nonspecific background. Sections were incubated for 1.5 h at room temperature with primary antibodies included: rabbit polyclonal antibody specific for CD133 (1:100, ab19898, Abcam, Cambridge, MA), rabbit polyclonal antibody specific for c-Kit (1:100, sc-168, Santa Cruz Biotechnology, Santa Cruz, CA), goat polyclonal antibody specific for CD34 (1:100, AF4117, R&D Systems, Minneapolis, MN), mouse monoclonal antibody specific for SDF-1 (1:100, MAB310, R&D Systems), FITC-conjugated rat monoclonal antibody specific for F4/80 (1:100, 11-4801, eBioscience, San Diego, CA), mouse monoclonal antibody specific for α-SMA (1:100, ab7817, Abcam), rat monoclonal antibody specific for CD31 (1:100, 14-0311, eBioscience) or rabbit polyclonal antibody specific for HGF (1:100, sc-7949, Santa Cruz), or the combinations of two of them for double fluorescence staining. […] Tissue sections were analyzed by confocal microscopy (Carl Zeiss Microscopy, Thornwood, NY).
# [3] = tested on: lacZ and GFP positive (CD133 lineage) cells in granulation tissues; assay: CD133 lineage tracing in wounded CD133+/C-L mice; type: in vivo, mouse (CD133+/C-L); details: 5 days after wounding, versus saline group 1
# Description: To activate CreERT2 expressed from the CD133C-L locus, thereby irreversibly activating GFP expression in CD133+ cells and their progeny, 7 days prior to surgery, adult mT/mG; CD133+/C-L-RosaEGFP mice were injected intraperitoneally with 5.0 mg of tamoxifen (Sigma) dissolved in corn oil (FIG. 6a; Muzumdar et al., 2007). […] Animal were sacrificed by CO2 euthanasia at indicated time points and skin samples including and surrounding the wound area were excised, fixed in 2% paraformaldehyde overnight at 4° C., cryo-protected in 30% sucrose overnight at 4° C. and frozen in OCT (optimum cutting temperature). Frozen sections were obtained using a Leica cryostat and slides were washed in PBS for 5 min. The lacZ analysis was performed with commercial β-Galactosidase staining kit (BioVision Inc. Milpitas, CA) utilizes X-gal as the substrate. […] For GFP microscopy, the skin sections were overlaid with mounting medium with DAPI (Vector Laboratories Inc., Burlingame, CA) and imaged with a confocal fluorescence microscopy (Carl Zeiss Microscopy, Thornwood, NY). To identify structure of lacZ- and GFP-positive tissues and cells, the same section was sequentially stained with DAPI for GFP fluorescence studies, followed by staining with X-gal and hematoxylin and eosin (H&E) (IHC World, Woodstock, MD), according to the manufacturer's instructions. […]
# [4] = tested on: α-smooth muscle actin (SMA) positive myofibroblast cells; assay: immunofluorescence staining for α-SMA; type: in vivo, mouse; details: mice, five days; versus saline group 1
# Description: as §1
# [5] = tested on: full-thickness skin excisional wounds; assay: in vivo full-thickness excisional wound model, mice; set-up: species or system mouse (C57BL/6); details: for day of complete wound closure: 5-mm excisions, s.c. Tacrolimus 0.1 mg kg-1 daily, AMD3100 1.0 mg kg-1 every other day, saline day 12
# Source text: In vivo excisional wound model. Animals aged 8-12 weeks were anesthetized with Isoflurane. The dorsal skin was shaved and cleaned with betadine and 70% ethanol. In mice, the midline and four points 1 cm on each side of the midline were marked by pen. Two points were at the level of the costal margin and two at the iliac crests designating the sites for excision (FIG. 1A). In rats, the four excisional wounds were placed 1 cm to either side of the midline and 1 cm above and below the midpoint between the costal margin and the iliac […] (FIG. 7a). The sterile disposable biopsy punch (5 mm in diameter; Miltex) was aligned vertically over the center of the mark and punched through the skin and Panniculus carnosus by applying pressure and twisting at the same time. The same procedure was repeated, generating four wounds on each animal (Tomlinson and Ferguson, 2003). The animals were house singly after regaining consciousness. For the mouse splinted wound model, one 5 mm excision was made on each side of the midline on the mid back. The donut-shaped, 0.5 mm-thick silicone splints with a diameter two times that of the wound (Grace Bio-Laboratories, Bend, OR) were then centered, sutured and glued (Krazy Glue®; Elmer's Inc., Columbus, OH) (FIG. 1F; Galiano et al., 2004). […] Each wound site was digitally photographed at the indicated time intervals, and wound areas were determined on photographs using Adobe Photoshop (version 7.0; Adobe Systems, San Jose, CA). Changes in wound areas over time were expressed as the percentage of the initial wound areas (FIG. 1). Example 1: AMD3100 plus low-dose Tacrolimus accelerated wound healing after full-thickness skin excision. Four full-thickness wounds were generated by 5-mm diameter circular excisions on the shaved back of a wild-type C57/B6 mouse (FIG. 1A). Each wound site was photographed digitally at the indicated time intervals, and wound areas were calculated using Adobe Photoshop software. Changes in wound areas over time were expressed as the percentage of the initial wound areas (FIG. 1b). […] All wound evaluations were double blinded.
# [6] = tested on: hair follicles and scar in healed wounds; assay: histology and hair follicle quantification of re-epithelialized wounds, mice; type: in vivo, mouse; details: day 15
# Source text: Histology and microscopy. Tissues from wound sites were collected at day 3, 5, 7, 9 and 15 after injury. Quantitative analysis of hair follicles: The number of regenerated hair follicles was quantified in a double-blind fashion. In nonwounded skin, the number of hair follicles in the area from the same location as the wound were counted and compared to experimental groups (FIG. 2A and FIG. 9A; broken lines indicated wound margin). Masson's trichrome (commercial kit from Polysciences, Inc. Warrington, PA) was used to detect collagen fibers (blue color).
# splinted skin wounds = assay: excisional wound splinting model, mice; type: in vivo, mouse; details: low-dose regimen, versus saline
# Source text: In vivo excisional wound model. Animals aged 8-12 weeks were anesthetized with Isoflurane. The dorsal skin was shaved and cleaned with betadine and 70% ethanol. In mice, the midline and four points 1 cm on each side of the midline were marked by pen. Two points were at the level of the costal margin and two at the iliac crests designating the sites for excision (FIG. 1A). […] The sterile disposable biopsy punch (5 mm in diameter; Miltex) was aligned vertically over the center of the mark and punched through the skin and Panniculus carnosus by applying pressure and twisting at the same time. The same procedure was repeated, generating four wounds on each animal (Tomlinson and Ferguson, 2003). The animals were house singly after regaining consciousness. For the mouse splinted wound model, one 5 mm excision was made on each side of the midline on the mid back. The donut-shaped, 0.5 mm-thick silicone splints with a diameter two times that of the wound (Grace Bio-Laboratories, Bend, OR) were then centered, sutured and glued (Krazy Glue®; Elmer's Inc., Columbus, OH) (FIG. 1F; Galiano et al., 2004).
# To deter this mechanism, we performed the excisional wound splinting model, where a splinting ring is bonded tightly to the skin around the wound (FIG. 1e). The wound therefore heals through granulation and re-epithelialization, a process similar to the healing of most human skin defects.
# [7] = tested on: full-thickness burn wounds; assay: burn wound model in mice; type: in vivo, mouse; details: burned mice; Tacrolimus 0.1 mg/kg daily, AMD3100 1.0 mg/kg every two days s.c.; saline day 26
# Description: Burn wound model in mice. Mice aged […] were anesthetized with 3% isoflurane (Baxter Healthcare Co., Deerfield, IL, USA) using an anesthesia machine, shaved on the dorsum and depilated with Nair cream (Church & Dwight Co., Princeton, NJ, USA). The burn wound was generated as previously reported (Arch Surg 2010; 145: 259-266). Briefly, a custom made 100-g aluminum rod was heated in a 100° C. water bath for 5 min. One burns of 1.2-cm diameter were produced on the dorsum of each mouse. To assure burn uniformity, only the weight of the rod provided pressure to the skin surface. Contact time of 4 s measured with a metronome was chosen to produce a standardized full-thickness burn. The burns were third degree including destruction of the skin, subcutaneous tissue and the Panniculous carnosus. Buprenorphine (0.1 mg/kg) was administrated subcutaneously for analgesia. Treatment and wound measurement. […] Each wound site was digitally photographed at the indicated time intervals, and wound areas were determined on photographs using Adobe Photoshop (version 7.0; Adobe Systems, San Jose, CA). Changes in wound areas over time were expressed as the percentage of the initial wound areas. All wound evaluations were double blinded.
# [8] = tested on: skin excisional wounds in diabetic rats; assay: skin excisional wound healing in STZ-induced diabetic rats; type: in vivo, rat (Lewis); details: Tacrolimus 0.1 mg/kg daily, AMD3100 1.0 mg/kg every two days s.c., saline day 23
# Source text: Diabetic rat model. Streptozotocin (STZ) is an antibiotic that can cause pancreatic beta-cell destruction, so it is widely used experimentally as an agent capable of inducing insulin-dependent diabetes mellitus (IDDM), also known as type 1 diabetes mellitus (T1DM). The most common animal model of human diabetes is streptozotocin (STZ)-induced diabetes in the rat. Streptozotocin (STZ)-induced diabetic rat model used to determine the skin wound healing. All rats (aged at 12-16 weeks) developed diabetes (blood glucose >450 mg/dL) 2 weeks after STZ injection (50 mg/kg, i.p.). The four excisional wounds were placed 1 cm to either side of the midline and 1 cm above and below the midpoint between the costal margin and the iliac crests. The sterile disposable biopsy punch (5 mm in diameter; Miltex) was aligned vertically over the center of the mark and punched through the skin and Panniculus carnosus by applying pressure and twisting at the same time. The same procedure was repeated, generating four wounds on each animal. Treatment and wound measurement. […] Each wound site was digitally photographed at the indicated time intervals, and wound areas were determined on photographs using Adobe Photoshop (version 7.0; Adobe Systems, San Jose, CA). Changes in wound areas over time were expressed as the percentage of the initial wound areas. All wound evaluations were double blinded.
# [9] = tested on: SDF-1 and F4/80 positive cells (macrophages) in wound sites; assay: immunofluorescence staining for SDF-1 and F4/80; type: in vivo, mouse; details: mice, 5 days post-injury
# Description: as §1
# SDF-1 mRNA = assay: semi-quantitative RT-PCR of granulation tissues, SDF-1; type: in vivo, mouse; details: mice, 5 days post-injury
# Description: Semiquantitative reverse transcription polymerase chain reaction analysis. Skin specimens were kept frozen at −80° C. until homogenized for RNA extraction using the TRIzol Reagent (Invitrogen, Carlsbad, CA, USA). First strand cDNA synthesis was then performed on 5 μg of total RNA using the superscript first-strand synthesis system for reverse transcription polymerase chain reaction (RT-PCR; Invitrogen) according to the manufacturer's instructions. The PCR contained 1 μL of deoxynucleoside triphosphate mix (10 mM each dNTP), 1 μL of 10 μM each primer, 0.4 μL, (5 IU μL−1) of Platinum Taq polymerase (Invitrogen), 1.5 μL of 50 mM MgCl2 and 2 μL […] as template in a 50 μL reaction solution. Thermal cycling was started with one cycle at 94° C. for 4 min. This was followed by 25-35 cycles at 94° C. for 30 s, 59° C. for 30 s, 72° C. for 30 s and 72° C. for final extension for 10 min. PCR products were electrophoresed on 1.2% agarose gels and visualized with GelStar® Stain (Lonza Rockland Inc., Rockland, ME). […] The expression levels of target mRNA were quantified by densitometry and normalized with the corresponding internal control.
smiles,measurement,setting,value
"c1cc(CN2CCCNCCNCCCNCC2)ccc1CN1CCCNCCNCCCNCC1 [AMD3100, 1,1′-[1,4-phenylenebis(methylene)]bis-1,4,8,11-tetraazacyclo-tetradecane]",pIC50,[1],7.29
same,"number of CD133+, c-Kit+ and CD34+ cells in wound tissue sections",[2],relatively mild recruitment of stem cells
same,numbers of lacZ and GFP positive cells in granulation tissues,[3],significantly higher
same,number of α-SMA positive myofibroblast cells in granulation tissues,[4],increased
same,day of complete wound closure,[5],11 days
same,effect of high doses on skin wound healing,"[5]; Tacrolimus 1.0 mg kg-1 daily, AMD3100 5.0 mg kg-1 every two days, versus saline",no significant difference; also recorded: failed to demonstrate significant difference
same,number of hair follicles in re-epithelialized wound,[6],few hair follicles
same,wound repair in splinted wounds,splinted skin wounds,accelerated
same,day of complete wound closure,[7],23 days
same,day of complete wound closure,[8],21 days
C=CC[C@@H]1/C=C(\C)C[C@H](C)C[C@H](OC)[C@H]2O[C@@](O)(C(=O)C(=O)N3CCCC[C@H]3C(=O)O[C@H](/C(C)=C/[C@@H]3CC[C@@H](O)[C@H](OC)C3)[C@H](C)[C@@H](O)CC1=O)[C@H](C)C[C@@H]2OC [Tacrolimus],number of SDF-1 and F4/80 positive cells in wound sites,[9],significantly greater
same,numbers of lacZ and GFP positive cells in granulation tissues,[3],significantly higher
same,number of α-SMA positive myofibroblast cells in granulation tissues,[4],increased
same,day of complete wound closure,[5],11 days
same,number of hair follicles in re-epithelialized wound,[6],few hair follicles
same,wound repair in splinted wounds,splinted skin wounds,accelerated
same,day of complete wound closure,[7],21 days
same,SDF-1 mRNA expression in granulation tissues,SDF-1 mRNA,significantly increased
same,day of complete wound closure,[8],21 days
